Measurements taken from patent US6172066A, “Dihydropyrimidines and uses thereof” (Synaptic Pharmaceutical Corporation, priority 1997, dated 2001).
Counter-ions that a name gives are not always drawn.

target: T1, α1A Human Adrenergic Receptor (Homo sapiens, UniProt P35348); assay: Radioligand binding, [3H]prazosin displacement, cloned human α1A receptor (LM(tk-) cell membranes); conditions: [3H]prazosin 0.5 nM, 37° C., 20 min
T1 construct: The entire coding region of α1A (1401 bp); expressed in transfected cells
T1 sequence (P35348 1-466): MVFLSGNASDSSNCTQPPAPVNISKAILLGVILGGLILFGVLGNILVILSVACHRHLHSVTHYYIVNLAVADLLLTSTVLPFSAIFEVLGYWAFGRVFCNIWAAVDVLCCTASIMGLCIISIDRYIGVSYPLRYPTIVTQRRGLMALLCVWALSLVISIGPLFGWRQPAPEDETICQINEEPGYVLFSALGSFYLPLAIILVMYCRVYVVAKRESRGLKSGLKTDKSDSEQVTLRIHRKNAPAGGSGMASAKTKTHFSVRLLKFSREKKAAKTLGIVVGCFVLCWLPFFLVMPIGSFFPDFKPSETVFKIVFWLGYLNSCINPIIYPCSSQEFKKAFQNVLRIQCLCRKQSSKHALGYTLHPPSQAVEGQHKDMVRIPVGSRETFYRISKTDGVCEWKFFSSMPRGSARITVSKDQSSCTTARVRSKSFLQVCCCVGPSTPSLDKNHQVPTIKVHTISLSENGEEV
Procedure: The activity of compounds at the different human receptors was determined in vitro using cultured cell lines that selectively express the receptor of interest. These cell lines were prepared by transfecting the cloned cDNA or cloned genomic DNA or constructs containing both genomic DNA and cDNA encoding the human α-adrenergic receptors as follows:
The entire coding region of α1A (1401 bp), including 400 base pairs of 5' untranslated sequence (5' UT) and 200 bp of 3' untranslated sequence (3' UT), was cloned into the KpnI site of the polylinker-modifiedpCEXV-3-derived eukaryotic expression vector, EXJ.RH. The construct involved ligating three partial overlapping fragments: a 5' 0.6kb HincII genomic clone, a central 1.8 EcoRI hippocampal cDNA clone, and a 3' 0.6Kb PstI genomic clone. The hippocampal cDNA fragment overlaps with the 5' and 3' genomic clones so that the HincII and PstI sites at the 5' and 3' ends of the cDNA clone, respectively, were utilized for ligation. This full-length clone was cloned into the KpnI site of the expression vector, using the 5' and 3' KpnI sites of the fragment, derived from vector (i.e., pBluescript) and 3'-untranslated sequences, respectively. Stable cell lines were selected as described above. The stable cell line expressing the human α1A receptor used herein was designated L-α1C (old nomenclature) and was deposited with the American Type Culture Collection, 12301 Parklawn Drive, Rockville, Md. 20852, U.S.A. under the provisions of the Budapest Treaty for the International Recognition of the Deposit of Microorganisms for the Purposes of Patent Procedure. The cell line expressing the human α1A receptor was accorded Accession No. CRL 11140, on Sep. 25, 1992.
Transfected cells from culture flasks were scraped into 5 ml of 5 mM Tris-HCl, 5 mM EDTA, pH 7.5, and lysed by sonication. The cell lysates were centrifuged at 1000 rpm for 5 min at 4° C., and the supernatant was centrifuged at 30,000×g for 20 min at 4° C. The pellet was suspended in 50 mM Tris-HCl, 1 mM MgCl2, and 0.1% ascorbic acid at pH 7.5. Binding of the α1 antagonist [^3 H]prazosin (0.5 nM, specific activity 76.2 Ci/mmol) to membrane preparations of LM(tk-) cells was done in a final volume of 0.25 ml and incubated at 37° C. for 20 min. Nonspecific binding was determined in the presence of 10 μM phentolamine. The reaction was stopped by filtration through GF/B filters using a cell harvester. Inhibition experiments, routinely consisting of 7 concentrations of the tested compounds, were analyzed using a non-linear regression curve-fitting computer program to obtain Ki values.

| hα1A pKi | Compound |
| --- | --- |
| 9.51 | cis-6-(3,4,5-Trifluorophenyl)-1-{N-[2-(4-cyano-4-phenyl-cyclohexylamino)ethyl]}-carboxamido-5-acetyl-4-methoxymethyl-2-oxo-1,2,3,6-tetrahydropyrimidine hydrochloride [Example 2] |

same assay, conditions: [3H]prazosin 0.5 nM, 37° C., 20 min, read-out: hα1A pKi (converted)

| Ki [nM] | Compound |
| --- | --- |
| 0.49 | CCC1=C(C(N)=O)C(c2ccc(F)cc2F)N(C(=O)NCCN[C@H]2CC[C@](C#N)(c3ccccc3)CC2)C(=O)N1 (single isomer, unassigned; (+)) [Example 3, (+)-cis-5-Carboxamido-6-(2,4-difluorophenyl)-1-{N-[2-(4-cyano-4-phenyl-cyclohexylamino)ethyl]}carboxamido-4-ethyl-2-oxo-1,2,3,6-tetrahydropyrimidine hydrochloride] |
| 0.135 | COCC1=C(C(=O)OC)C(c2ccc(F)c(F)c2)N(C(=O)NCCN[C@H]2CC[C@](C#N)(c3ccccc3)CC2)C(=O)N1 (single isomer, unassigned; (+)) [Example 4, (+)-cis-6-(3,4-Difluorophenyl)-1-{N-[2-(4-cyano-4-phenyl-cyclohexylamino)ethyl]}carboxamido-5-methoxycarbonyl-4-methoxymethyl-2-oxo-1,2,3,6-tetrahydropyrimidine hydrochloride] |
| 0.126 | COCC1=C(C(=O)OC)C(c2ccc(F)c(F)c2)N(C(=O)NCCN[C@H]2CC[C@@](C#N)(c3ccccc3)CC2)C(=O)N1 (single isomer, unassigned; (+)) [Example 5, (+)-trans-6-(3,4-Difluorophenyl)-1-{N-[2-(4-cyano-4-phenyl-cyclohexylamino)ethyl]}carboxamido-5-methoxycarbonyl-4-methoxymethyl-2-oxo-1,2,3,6-tetrahydropyrimidine hydrochloride] |
| 4.47 | COCC1=C(C(=O)OC)C(c2ccc(F)c(F)c2)N(C(=O)NCCN[C@H]2CC[C@H](c3ccccn3)CC2)C(=O)N1 (single isomer, unassigned; (+)) [Example 7, (+)-trans-6-(3,4-Difluorophenyl)-1-{N-[2-(4-(2-pyridyl)-cyclohexylamino)ethyl]}carboxamido-5-methoxycarbonyl-4-methoxymethyl-2-oxo-1,2,3,6-tetrahydropyrimidine hydrochloride] |
| 0.219 | COCC1=C(C(=O)OC)C(c2ccc(F)c(F)c2)N(C(=O)NCCN[C@H]2CC[C@](C(=O)OC)(c3ccccc3)CC2)C(=O)N1 (single isomer, unassigned; (+)) [Example 11, (+)-cis-6-(3,4-Difluorophenyl)-1-{N-[2-(4-methoxycarbonyl-4-phenyl-cyclohexylamino)ethyl]}carboxamido-5-methoxycarbonyl-4-methoxymethyl-2-oxo-1,2,3,6-tetrahydropyrimidine hydrochloride] |
| 0.102 | COC(=O)C1=C(C)NC(=O)N(C(=O)NCCN[C@H]2CC[C@](C#N)(c3ccccc3F)CC2)C1c1ccc(F)c(F)c1 (single isomer, unassigned; (+)) [Example 13, (+)-cis-6-(3,4-Difluorophenyl)-1-{N-[2-(4-cyano-4-(2-fluorophenyl)-cyclohexylamino)ethyl]}carboxamido-5-methoxycarbonyl-4-methyl-2-oxo-1,2,3,6-tetrahydropyrimidine hydrochloride] |
| 0.933 | COCC1=C(C(=O)OC)C(c2ccc(F)c(F)c2)N(C(=O)NCCN[C@H]2CC[C@](C#N)(c3ccccn3)CC2)C(=O)N1 (single isomer, unassigned; (+)) [Example 14, (+)-cis-6-(3,4-Difluorophenyl)-1-{N-[2-(4-cyano-4-(2-pyridyl)-cyclohexylamino)ethyl]}carboxamido-5-methoxycarbonyl-4-methoxymethyl-2-oxo-1,2,3,6-tetrahydropyrimidine hydrochloride] |
